Values after ≈ are worked out from the molar mass of the structure shown.
Experiments:
iPSC pneumocytes = iPSC pneumocytes cytotoxicity; format: cell-based
From the text: Supplement media-1.zip/Cytotoxicity.csv, table | column: cc10; cc50; perc_min_measured; perc_max_measured

[1] = Hepatic microsomal stability, MLM; format: in vitro ADME; settings: In vitro mouse liver microsomal stability
HeLa-ACE2 cells = settings: protocol HeLa-ACE2 cytotoxicity
in vitro [2] = settings: human, hela-ace2 cells, 50.0
[3] = Hepatic microsomal stability, HLM; format: in vitro ADME, human; settings: In vitro human liver microsomal stability
[4] = test system: SARS-CoV-2, isolate USA-WA1/2020; assay: microbe, parasite or virus in culture; format: cell-based; settings: HeLa-ACE2 SARS-CoV-2 antiviral effect without P-gp inhibitor
[5] = In vitro kinetic solubility; settings: In vitro kinetic solubility, ph 7.4
LogD = settings: pH 7.4; In vitro LogD
SARS-CoV-2 = assay: Antiviral effect in iPSC-derived pneumocyte system; format: cell-based; settings: iPSC pneumocytes SARS-CoV-2 antiviral effect
MERS-CoV = format: cell-based; settings: Vero 76 MERS-CoV antiviral effect
[6] = Permeability Papp (AB) MDR1/MDCKII; settings: In vitro MDR1-MDCKII permeability, mean
in vitro [7] = assay: in vitro; parameters: Cytotoxicity in iPSC-derived pneumocytes, CC50; settings: human, ipsc-derived pneumocytes; ASAP-0008327-001=ASAP-0011153-001; read-out: 50.0
[8] = highest measured response of the dose series
[9] = lowest measured response of the dose series
[10] = maximum measured response of dose series
[11] = minimum measured response of dose series

## CNC(=O)c1c[nH]c2ncnc(N[C@H](c3ccc4c(c3)S(=O)(=O)CCC4)C(C)C)c12 (single isomer, unassigned) [ASAP-0011153]
iPSC pneumocytes
  CC50: > 50 µM
  cc10: > 50.0 µM
iPSC pneumocytes; [8]
  perc_max_measured: 111.957%
iPSC pneumocytes; [9]
  perc_min_measured: 100.111%
[1]
  clint: 770.0 µL/min/mg
  perc_remaining: 0.0%
  t_half: 2.2 min
[1]; no cofactor
  perc_remaining_no_cofactor: 99.0%
Vero 76
  CC50: > 32 µM
HeLa-ACE2 cells
  CC50: > 20 µM
  cc10: > 20.0 µM
HeLa-ACE2 cells; [8]
  perc_max_measured: 96.782%
HeLa-ACE2 cells; [9]
  perc_min_measured: 85.977%
In vitro [2]
  CC50 at 24 h: > 20 µM
[3]
  clint: 258.0 µL/min/mg
  perc_remaining: 1.0%
  t_half: 6.5 min
[3]; no cofactor
  perc_remaining_no_cofactor: 94.0%
[4]; [10]
  perc_max_measured: 109.331%
[4]; [11]
  perc_min_measured: 66.391%
[4]; read-out: ec50
  EC50: > 20 µM
[4]; read-out: ec90
  EC90: > 20 µM
[5]
  solubility_mean: 336 µM (≈ 144 µg/mL)
LogD
  logd: 2.7
SARS-CoV-2
  EC50: 6.74 µM
  EC90: > 50 µM
SARS-CoV-2; [10]
  perc_max_measured: 88.736%
SARS-CoV-2; [11]
  perc_min_measured: 31.934%
MERS-CoV
  EC50: > 32 µM
[6]; A to B
  papp_a_to_b_mean: 1.61 ×10⁻⁶ cm/s
[6]; recovery A to B
  perc_recovery_a_to_b_mean: 92.7%
In vitro [7]
  CC50: > 50 µM
